Source: ChEMBL document CHEMBL1157906, “Imidazoacridin-6-ones as novel inhibitors of the quinone oxidoreductase NQO2” (Bioorg Med Chem Lett, 2010)
pIC50: −log10 of the molar value.

Columns and labels:
[1] = target: T1, Ribosyldihydronicotinamide dehydrogenase [quinone] (Homo sapiens, UniProt P16083); assay: Inhibition of human recombinant NQO2 assessed as reduction of DCPIP by spectrophotometry
T1 sequence (P16083 whole entry): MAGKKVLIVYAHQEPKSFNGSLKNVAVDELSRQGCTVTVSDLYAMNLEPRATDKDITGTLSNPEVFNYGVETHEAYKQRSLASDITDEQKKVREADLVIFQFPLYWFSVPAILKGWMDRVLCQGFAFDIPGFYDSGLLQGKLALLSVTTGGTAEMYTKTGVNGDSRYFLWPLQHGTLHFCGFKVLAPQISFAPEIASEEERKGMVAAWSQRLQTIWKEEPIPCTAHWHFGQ

[2] = test system: Nucleic Acid; assay: Binding affinity to calf thymus DNA assessed as change in melting temperature at 10 uM relative to control; assay type: nucleic-acid assay; details: Bos taurus
[3] = test system: HCT-116; assay: Toxicity in human HCT116 cells after 96 hrs by MTT assay; assay type: functional

pIC50 [1] | ΔTm [2] | SMILES | Activity [3]
8.05 | 8.6 °C | CCN(CC)CCNc1ccc2nc(C)n3c4ccc(OC)cc4c(=O)c1c23 | 3 µM
6.02 | 5 °C | CCN(CC)CCNc1ccc2ncn3c4cc(O)ccc4c(=O)c1c23 | 2.2 µM
6.08 | 5.6 °C | CN(C)CCNc1ccc2ncn3c4ccccc4c(=O)c1c23 | 0.57 µM
7.77 | 1.8 °C | CCN(CC)CCNc1ccc2ncn3c4c(OC)ccc(OC)c4c(=O)c1c23 | 1.67 µM
6.37 | 6.4 °C | CCN(CC)CCNc1ccc2ncn3c4ccccc4c(=O)c1c23 | 1 µM
6.16 | 5.1 °C | CCc1nc2ccc(NCCN(C)C)c3c(=O)c4ccccc4n1c23 | 0.47 µM
6.00 | 4.5 °C | CCN(CC)CCNc1ccc2ncn3c4ccc(OC)cc4c(=O)c1c23 | 2.9 µM
6.22 | 8 °C | CCN(CC)CCCNc1ccc2ncn3c4ccc(O)cc4c(=O)c1c23 | 0.82 µM
7.80 | 8.6 °C | CCN(CC)CCNc1ccc2nc(C)n3c4ccc(O)cc4c(=O)c1c23 | 3 µM
7.51 | 3.1 °C | CCN(CC)CCNc1ccc2ncn3c4c(OC)ccc(O)c4c(=O)c1c23 | 0.54 µM
7.00 | 5 °C | CCN(CC)CCNc1ccc2ncn3c4c(OC)cccc4c(=O)c1c23 | 1.7 µM
6.76 | 5.2 °C | CN(C)CCCNc1ccc2ncn3c4ccccc4c(=O)c1c23 | 0.86 µM
8.22 | 1 °C | CCN(CC)CCNc1ccc2ncn3c4cc(OC)c(OC)c(O)c4c(=O)c1c23 | 0.95 µM
6.49 | 7.1 °C | Cc1nc2ccc(NCCN(C)C)c3c(=O)c4ccccc4n1c23 | 0.46 µM
 | 14.5 °C | COc1cccc2c1C(=O)c1c(O)c3c(c(O)c1C2=O)C[C@@](O)(C(=O)CO)C[C@@H]3O[C@H]1C[C@H](N)[C@H](O)[C@H](C)O1 | 
7.30 | 9.1 °C | Cc1nc2ccc(NCCN(C)C)c3c(=O)c4cc(O)ccc4n1c23 | 0.65 µM
6.53 | 5.1 °C | CN(C)CCNc1ccc2ncn3c4ccc(O)cc4c(=O)c1c23 | 1 µM

SMILES | pIC50 [1] | ΔTm [2] | Activity [3]
CCN(CC)CCNc1ccc2ncn3c4ccc(O)cc4c(=O)c1c23 [C-1311] | 6.83 | 4.5 °C | 0.77 µM
